# Reference: patent US20230144619A1, “SALT OF ARYLAMINOPURINE DERIVATIVE, PREPARATION METHOD THEREFOR AND USE THEREOF” (CSPC Zhongqi Pharmaceutical Technology (Shijiazhuang) Co., …, priority 2020, published 2023)
# Structures can show the parent of a compound that is named as a salt.
# Assays:
# Long-term stability test = format: physicochemical; conditions: 25±2° C., relative humidity 60%±5%; for Content (%) / Moisture (%) / Related substances (%): packaged; for Acidity: pH value of 10 mg in 10 mL water
# Method: Detection instrument: Karl Fischer moisture titrator/915 KF Ti-Touch
# Test method: After the instrument was balanced, a proper amount (about 200 mg) of the test sample was taken, precisely weighed, and added to a titration cup, absolute methanol was used as the solvent, and a moisture titration solution was used for the direct measurement, and an average value was obtained by measuring each test sample twice.
# Detection Instrument: High performance liquid chromatograph/Waters e2695-2489
# Octadecyl silane bonded to silica gel was used as a filler (the applicable range of the pH value should be greater than 10.0), 20 mmol/L of disodium hydrogen phosphate solution (the pH value was adjusted to 10.0 with sodium hydroxide)-acetonitrile (65:35) was used as the mobile phase; the detection wavelength was 287 nm, and the column temperature was 30° C. The number of theoretical plates should be not less than 3000.
# Determination method: About 20 mg of the sample was taken and precisely weighed, put in a 100 mL volumetric flask. A diluent (50% methanol/water) was added to dissolve and dilute the sample to the scale. The content was shaken uniformly, and 10 μL was precisely metered and injected into a liquid chromatograph, and the chromatogram was recorded; another appropriate amount of the reference substance was taken, and the same method was used for determination. The result was obtained by calculating the peak area according to the external standard method.
# Detection instrument: Mettler Toledo S210-K pH meter
# Test method: Based on the operation according to the pH value measurement method, 10 mg of a sample was precisely weighed, then 10 mL of freshly boiled and cooled purified water was added to dissolve the sample, and the mixture was shaken uniformly, and then the pH value was measured.
# 12. Measurement of Related Substances
# Detection instrument: High performance liquid chromatograph/Waters e2695-2489
# Chromatographic Conditions:
# Octadecylsilane bonded to silica gel was used as a filler (Model: Waters Xbridge C18 chromatographic column, with a length of 250 mm, an inner diameter of 4.6 mm, and a filler particle size of 5 μm), the detection wavelength was 250 nm, the column temperature was 35° C., and the flow rate was 1.0 mL/minute, the mobile phase A was 0.02 mol/L of a disodium hydrogen phosphate solution (the pH value was adjusted to 10.0 with a sodium hydroxide solution), the mobile phase B was acetonitrile, and the diluent was methanol, and the temperature of the sample plate was 4° C.
# Test method: The system applicability test was performed according to the requirements, and the test sample solution, the control solution, and the sensitivity solution were prepared. Each 10 μL of the control solution and the test sample solution were precisely metered and injected into a liquid chromatograph, and the chromatogram was recorded. The result was obtained by calculating the peak area according to the self-dilution control method with the correction factor.
# An appropriate amount of the salt sample obtained from Example 1 was taken, a medicinal low-density polyethylene sack was used as the internal packaging, and a polyester/aluminum/polyethylene composite bag for medicine packaging was used as the external packaging. Samples were taken respectively at the end of the 3rd, 6th, 9th, 12th, and 18th months after being stored at a temperature of 25±2° C. under a relative humidity of 60%±5%. The appearances were compared, followed by measuring other investigation indexes. The results were compared with those measured in the 0th month.
# Hygroscopicity test = format: physicochemical; conditions: 25±1° C., relative humidity 80%±2% (DVS, 80% RH)
# Method: Detection instrument: XPE105DR
# (1) A dry stoppered glass weighing bottle was taken, placed in a suitable constant-temperature desiccator at 25° C. 1° C. (with a saturated solution of ammonium chloride or ammonium sulfate in the lower part) or an artificial climate box (with the set temperature of 25° C.±1° C. and the relative humidity of 80%±2%) on the day before the test, and precisely weighed and recorded as the weight (m1).
# (2) An appropriate amount of the test sample was taken and spread in the above-mentioned weighing bottle. The thickness of the test sample was generally about 1 mm, and the bottle was precisely weighed and recorded as the weight (m2).
# (3) The stopper was removed to open the weighing bottle, and the opened weighing bottle and the stopper were placed under the above-mentioned constant temperature and humidity conditions for 24 hours.
# (4) The opened weighing bottle was stoppered, precisely weighed, and recorded as the weight (m3).
# Percentage increase in mass=(m3−m2)/(m2−m1)×100%
# (5) The description of hygroscopicity characteristics and the definition for the weight gain due to hygroscopicity:
# Deliquescence: Sufficient water was absorbed to form a liquid.
# Very hygroscopic: the weight gain due to hygroscopicity was not less than 15%.
# Hygroscopic: the weight gain due to hygroscopicity was less than 15% but not less than 2%.
# Slightly hygroscopic: the weight gain due to hygroscopicity was less than 2% but not less than 0.2%.
# Not or nearly not hygroscopic: the weight gain due to hygroscopicity was less than 0.2%.
# Appropriate amounts of the salt samples obtained from Examples 1 and 3-17 were subjected to the hygroscopicity test at a temperature of 25±1° C. under a relative humidity of 80%±2%, and the results were as follows: […]
# EGFR(h) = EGFR(h) (Homo sapiens, UniProt P00533); experiment: Kinase inhibitory activity test (per WO2011/147066); format: biochemical
# Sequence of EGFR(h) (P00533 25-1210): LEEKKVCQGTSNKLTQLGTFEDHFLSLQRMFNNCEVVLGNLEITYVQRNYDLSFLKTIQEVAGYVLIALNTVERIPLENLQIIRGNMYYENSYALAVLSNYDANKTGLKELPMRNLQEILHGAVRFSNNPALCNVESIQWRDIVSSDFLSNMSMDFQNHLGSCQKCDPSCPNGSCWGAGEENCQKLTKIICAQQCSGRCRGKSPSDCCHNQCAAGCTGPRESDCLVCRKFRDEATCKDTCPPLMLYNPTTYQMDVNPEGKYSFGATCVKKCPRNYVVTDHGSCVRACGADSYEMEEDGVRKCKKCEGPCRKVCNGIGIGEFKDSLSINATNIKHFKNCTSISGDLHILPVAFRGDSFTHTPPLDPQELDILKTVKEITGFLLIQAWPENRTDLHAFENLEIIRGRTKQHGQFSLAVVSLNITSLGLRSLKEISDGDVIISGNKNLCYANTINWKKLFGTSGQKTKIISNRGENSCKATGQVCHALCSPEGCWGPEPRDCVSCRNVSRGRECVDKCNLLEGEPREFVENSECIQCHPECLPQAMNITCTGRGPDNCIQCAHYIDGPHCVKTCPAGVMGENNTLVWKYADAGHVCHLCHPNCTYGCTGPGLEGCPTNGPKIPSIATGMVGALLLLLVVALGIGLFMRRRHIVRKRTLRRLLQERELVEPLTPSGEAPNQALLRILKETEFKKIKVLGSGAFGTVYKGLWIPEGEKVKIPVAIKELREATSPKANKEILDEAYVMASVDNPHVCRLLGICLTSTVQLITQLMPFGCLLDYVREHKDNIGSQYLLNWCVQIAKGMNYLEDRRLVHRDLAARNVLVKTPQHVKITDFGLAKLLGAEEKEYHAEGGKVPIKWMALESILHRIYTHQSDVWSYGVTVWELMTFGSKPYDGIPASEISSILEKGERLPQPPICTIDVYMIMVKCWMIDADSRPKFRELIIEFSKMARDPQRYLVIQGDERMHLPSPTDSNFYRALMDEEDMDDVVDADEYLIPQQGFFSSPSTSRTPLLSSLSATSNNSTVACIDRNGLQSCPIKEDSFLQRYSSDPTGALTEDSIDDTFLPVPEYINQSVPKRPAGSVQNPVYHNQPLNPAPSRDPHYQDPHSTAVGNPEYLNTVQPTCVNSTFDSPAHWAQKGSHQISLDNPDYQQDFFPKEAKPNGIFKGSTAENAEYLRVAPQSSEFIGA
# [1] = tested on: K562 (BCR-Abl gene rearrangement) subcutaneous tumor model; experiment: In-vivo anti-tumor test, K562 subcutaneous tumor model; design: species or system nude mice; conditions: 70 mg/kg, once daily oral administration for 18 days
# Method: The salt sample obtained from Example 1 was tested (specifically for FLT3-ITD acute myeloid leukemia, non-small cell lung cancer with EGFR activating mutations, or Ph-positive chronic myeloid leukemia) according to the in-vivo anti-tumor test described in the biological assessment of the patent application WO2011/147066.
compound,measurement,setting,value
"CC(C)n1c(Nc2cccnc2)nc2cnc(Nc3ccc(N4CCN(C)CC4)cc3)nc21 [Example 1, arylaminopurine derivative.trihydrochloride.pentahydrate]",Content (%),Long-term stability test; 0 Month,100.9%
same,Moisture (%),Long-term stability test; 0 Month,13.9%
same,Related substances (%),Long-term stability test; 0 Month,0.33%
same,Content (%),Long-term stability test; 3 Month,100.4%
same,Moisture (%),Long-term stability test; 3 Month,13.9%
same,Related substances (%),Long-term stability test; 3 Month,0.34%
same,Content (%),Long-term stability test; 6 Month,100.8%
same,Moisture (%),Long-term stability test; 6 Month,14.3%
same,Related substances (%),Long-term stability test; 6 Month,0.34%
same,Content (%),Long-term stability test; 9 Month,101.7%
same,Moisture (%),Long-term stability test; 9 Month,14.3%
same,Related substances (%),Long-term stability test; 9 Month,0.31%
same,Content (%),Long-term stability test; 12 Month,99.6%
same,Moisture (%),Long-term stability test; 12 Month,13.9%
same,Related substances (%),Long-term stability test; 12 Month,0.34%
same,Content (%),Long-term stability test; 18 Month,100.2%
same,Moisture (%),Long-term stability test; 18 Month,14.2%
same,Related substances (%),Long-term stability test; 18 Month,0.26%
same,Acidity,Long-term stability test; 0 Month,3.1
same,Acidity,Long-term stability test; 3 Month,3.3
same,Acidity,Long-term stability test; 6 Month,3.3
same,Acidity,Long-term stability test; 9 Month,3.3
same,Acidity,Long-term stability test; 12 Month,3.3
same,Acidity,Long-term stability test; 18 Month,3.3
same,Hygroscopicity,Hygroscopicity test,Slightly hygroscopic (the weight gain due to hygroscopicity was less than 2% but not less than 0.2%.)
same,Weight gain due to hygroscopicity,Hygroscopicity test,0.7%
same,IC50,EGFR(h),42 nM
same,tumor growth,[1],effectively inhibit the tumor growth
same,tumor inhibition rate,[1],71.3%
